From patent publication US20060258632A1, “Methods and agents for treating cardiovascular diseases” (Fraunhofer-Gesellschaft zur Forderung der angewandten …, priority 2002, published 2006) come the findings set out here.

The structures appear in SMILES notation.

Assay [1] deals with 5-alpha steroid reductase. The assay can be described thus: Testosterone metabolism in human and rat heart microsomal suspensions (HPLC of metabolites). The class given is biochemical. The conditions noted are these: FIG. 3.
Assay [2] deals with androgen receptor expression. The assay can be described thus: Androgen receptor expression in cultivated rat heart muscle cells (real-time RT-PCR). The format is cell-based. The conditions noted are these: testosterone added to culture medium (100 μM); isolated rat heart muscle cells; FIG. 5c. A general note: Real-time PCR tracks product formation cycle by cycle.
Experimental: (§1) Total RNA was isolated from heart tissue using the Total RNA Isolation Kit (Macherey-Nagel, Germany) according to the manufacturer's instructions. The quality of the isolated RNA was assessed by evaluating the ribosomal bands on agarose gel (1%). Of each sample, 2 μg RNA was used for reverse transcription. RNA and random primer (Roche Diagnostics, Mannheim, Germany) were preheated at 70° C. for 10 min. and subsequently incubated with 5×RT-AMV buffer (Roche Diagnostics, Mannheim, Germany), dNTPs (1 mM; Roche Diagnostics, Mannheim, Germany), 40U RNAse inhibitor (Stratagene, Amsterdam, Netherlands) and 20U AMV-RT (Promega, Mannheim, Germany) at a total volume of 20 μl for 60 min. at 42° C. […]
(§2) The studies were conducted With a lightcyler (Roche Diagnostics, Mannheim, Germany). […] By the end of each extension phase, fluorescence was measured to be used for evaluation. To guarantee that no unspecific primer dimers are measured, fluorescence detection was conducted above the temperature characteristic of primer dimers (as assessed in preliminary studies). Amplification was followed by a melting curve analysis, measuring fluorescence by slowly increasing the temperature of the DNA synthesis products from 65° C. to 95° C. […] The exact amount of the obtained PCR product was determined by co-amplification of standardized cardiac cDNA and according to the manufacturer's instructions. […]
Another assay deals with alpha-MHC expression. The conditions noted are these: testosterone substitution (100 μM, 8 h); rat heart muscle cells; FIGS. 7 and 8.

Experimental for alpha-MHC expression: as §1, §2

Regarding `CC(C)(C)NC(=O)[C@H]1CC[C@H]2[C@@H]3CC[C@H]4NC(=O)C=C[C@]4(C)[C@H]3CC[C@]12C` [finasteride], the 5-alpha-DHT production decreased in assay [1] (finasteride 25 μM, heart microsomes, 100 μM testosterone, 4 h at 37° C.) came out at 60%. Besides, the “production of dihydrotestosterone in the heart tissue” value in assay [1] (inhibition of 5-alpha reductase) is “reduced and normalized”.
On to `C[C@]12CC[C@H]3[C@@H](CCC4=CC(=O)CC[C@@]43C)[C@@H]1CC[C@@H]2O` [testosterone], for which, in assay [2], the androgen receptor expression result was “reduces and normalizes”. The alpha-MHC expression entry in the assay with alpha-MHC expression was “normalization”.
